Measurements from ChEMBL document CHEMBL1136297, “Synthesis and pharmacological evaluation of (Z)-9-(heteroarylmethylene)-7-azatricyclo[4.3.1.0(3,7)]decanes: thiophene analogues as potent norepinephrine transporter inhibitors” (Bioorg Med Chem Lett, 2003).

Columns and labels:
[1] = Inhibition of reuptake of norepinephrine compared to serotonin.; type: functional
[2] = Inhibition of reuptake of serotonin compared to dopamine.; type: functional
[3] = Inhibition of reuptake of norepinephrine compared to dopamine.; type: functional
[4] = biological target: Sodium-dependent serotonin transporter (Rattus norvegicus, UniProt P31652); test: Ability to inhibit reuptake of serotonin ([3H]5-HT) at serotonin transporter of rat midbrian
[5] = biological target: Sodium-dependent dopamine transporter (Rattus norvegicus, UniProt P23977); test: Ability to inhibit reuptake of dopamine ([3H]DA) at dopamine transporter of rat striatum; type: tissue-based
[6] = biological target: Norepinephrine transporter (Rattus norvegicus, UniProt Q9WTR4); test: Ability to inhibit reuptake of norepinephrine ([3H]NE) at norepinephrine transporter of rat parietal/occipital region
[7] = Ratio of inhibitory activity against reuptake of norepinephrine ([3H]-NE) to that of serotonin ([3H]-5-HT)[…]; type: functional

Sodium-dependent serotonin transporter, sequence (P31652 whole entry): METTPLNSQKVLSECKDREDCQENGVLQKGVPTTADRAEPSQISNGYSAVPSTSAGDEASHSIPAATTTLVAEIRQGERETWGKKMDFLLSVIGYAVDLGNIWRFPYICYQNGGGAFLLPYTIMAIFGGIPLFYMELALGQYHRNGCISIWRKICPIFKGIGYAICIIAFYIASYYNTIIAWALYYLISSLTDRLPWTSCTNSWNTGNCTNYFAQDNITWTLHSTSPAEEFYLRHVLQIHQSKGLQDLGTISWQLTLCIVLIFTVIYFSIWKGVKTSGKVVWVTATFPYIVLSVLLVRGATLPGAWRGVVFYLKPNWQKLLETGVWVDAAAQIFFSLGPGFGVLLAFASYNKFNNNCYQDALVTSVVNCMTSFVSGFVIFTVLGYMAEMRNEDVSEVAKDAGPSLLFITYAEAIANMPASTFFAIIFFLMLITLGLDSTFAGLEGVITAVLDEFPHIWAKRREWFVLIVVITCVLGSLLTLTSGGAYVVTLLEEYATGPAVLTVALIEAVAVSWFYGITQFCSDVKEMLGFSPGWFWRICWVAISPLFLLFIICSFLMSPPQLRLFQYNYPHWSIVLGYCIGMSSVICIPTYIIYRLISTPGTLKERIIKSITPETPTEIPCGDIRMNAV
Sodium-dependent dopamine transporter, sequence (P23977 whole entry): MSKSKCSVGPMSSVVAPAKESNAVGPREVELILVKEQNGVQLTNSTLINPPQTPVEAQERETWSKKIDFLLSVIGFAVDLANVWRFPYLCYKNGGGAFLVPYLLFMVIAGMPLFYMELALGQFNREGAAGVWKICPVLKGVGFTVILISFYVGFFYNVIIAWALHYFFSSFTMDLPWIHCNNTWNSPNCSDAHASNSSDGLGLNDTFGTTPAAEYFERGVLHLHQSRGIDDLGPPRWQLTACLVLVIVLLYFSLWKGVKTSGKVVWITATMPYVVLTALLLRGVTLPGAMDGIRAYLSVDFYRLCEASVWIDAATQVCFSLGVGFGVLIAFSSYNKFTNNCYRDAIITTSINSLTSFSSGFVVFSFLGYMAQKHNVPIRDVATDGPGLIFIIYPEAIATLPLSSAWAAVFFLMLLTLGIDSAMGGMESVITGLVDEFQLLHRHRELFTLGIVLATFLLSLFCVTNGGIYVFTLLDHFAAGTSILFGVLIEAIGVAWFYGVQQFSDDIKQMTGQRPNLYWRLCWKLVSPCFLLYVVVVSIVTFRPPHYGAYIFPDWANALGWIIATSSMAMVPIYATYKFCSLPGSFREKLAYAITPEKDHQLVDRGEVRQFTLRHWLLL
Norepinephrine transporter, sequence (Q9WTR4 whole entry): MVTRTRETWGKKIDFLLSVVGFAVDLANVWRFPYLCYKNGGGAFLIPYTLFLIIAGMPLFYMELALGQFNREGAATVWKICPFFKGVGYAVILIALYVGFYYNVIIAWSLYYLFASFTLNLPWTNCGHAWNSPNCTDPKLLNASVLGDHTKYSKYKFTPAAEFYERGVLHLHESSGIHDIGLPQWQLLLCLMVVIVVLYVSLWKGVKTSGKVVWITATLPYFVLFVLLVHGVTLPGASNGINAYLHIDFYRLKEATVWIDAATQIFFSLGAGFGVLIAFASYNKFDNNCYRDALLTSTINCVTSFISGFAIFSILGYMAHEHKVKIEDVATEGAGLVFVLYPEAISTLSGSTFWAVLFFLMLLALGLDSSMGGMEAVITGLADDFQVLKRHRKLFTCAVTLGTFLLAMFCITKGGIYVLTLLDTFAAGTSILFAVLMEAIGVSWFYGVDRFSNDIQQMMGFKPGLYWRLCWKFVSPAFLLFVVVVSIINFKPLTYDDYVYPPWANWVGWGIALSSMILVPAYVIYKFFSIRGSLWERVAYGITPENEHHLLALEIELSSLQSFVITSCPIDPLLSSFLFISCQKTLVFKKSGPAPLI

COC(=O)C1C2CC3CCC1N3C/C2=C\c1cccs1 (stereo unspecified)
Ratio [1]: 0.01 | Ratio [2]: 7.63 | Ratio [3]: 0.1

COC(=O)C1C2CC3CCC1N3C/C2=C\c1cccc(OC)n1 (stereo unspecified)
Ratio [1]: 0.65 | Ki [4]: 0.477 µM | Ki [5]: 14 µM | Ratio [2]: 0.03 | Ki [6]: 0.308 µM | Ratio [3]: 0.02

COC(=O)C1C2CC3CCC1N3C/C2=C\c1ccc(-c2ccc(SC)cc2)s1 (stereo unspecified)
Ratio [1]: 0.08 | Ki [4]: 3.32 µM | Ki [5]: 1.65 µM | Ratio [2]: 2.01 | Ki [6]: 0.273 µM | Ratio [3]: 0.16

COC(=O)C1C2CC3CCC1N3C/C2=C\c1nccs1 (stereo unspecified)
Ki [4]: > 10 µM | Ki [5]: 5.09 µM | Ratio [7]: 0.17 | Ki [6]: 0.855 µM

COC(=O)C1C2CC3CCC1N3C/C2=C\c1ccc(-c2ccc(OC)cc2)s1 (stereo unspecified)
Ratio [1]: 0.02 | Ki [4]: 0.531 µM | Ki [5]: 0.371 µM | Ratio [2]: 1.43 | Ki [6]: 0.0103 µM | Ratio [3]: 0.03

COC(=O)C1C2CC3CCC1N3C/C2=C\c1ccc(I)s1 (stereo unspecified)
Ratio [1]: 0.17 | Ratio [2]: 0.08 | Ratio [3]: 0.01

COC(=O)C1C2CC3CCC1N3C/C2=C\c1cnc(OC)nc1OC (stereo unspecified)
Ki [4]: 5.14 µM | Ki [5]: > 10 µM | Ratio [7]: 1.84 | Ki [6]: 9.45 µM

COC(=O)C1C2CC3CCC1N3C/C2=C\c1ccc(Cl)s1 (stereo unspecified)
Ratio [1]: 0.18 | Ki [4]: 0.053 µM | Ki [5]: 0.13 µM | Ratio [2]: 0.41 | Ki [6]: 0.0097 µM | Ratio [3]: 0.07

COC(=O)C1C2CC3CCC1N3C/C2=C\c1ccc(C)s1 (stereo unspecified)
Ratio [1]: 0.03 | Ratio [2]: 0.44 | Ratio [3]: 0.01

COC(=O)C1C2CC3CCC1N3C/C2=C\c1ccccn1 (stereo unspecified)
Ratio [1]: 0.04 | Ki [4]: 3.15 µM | Ratio [2]: 2.97 | Ki [6]: 0.115 µM | Ratio [3]: 0.11

COC(=O)C1C2CC3CCC1N3C/C2=C\c1ccsc1 (stereo unspecified)
Ratio [1]: 0.01 | Ki [4]: 3.14 µM | Ki [5]: 0.485 µM | Ratio [2]: 6.47 | Ki [6]: 0.033 µM | Ratio [3]: 0.07

CCc1ccc(/C=C2\CN3C4CCC3C(C(=O)OC)C2C4)s1 (stereo unspecified)
Ki [4]: 0.346 µM | Ki [5]: > 10 µM | Ratio [7]: 6.16 | Ki [6]: 2.13 µM

COC(=O)C1C2CC3CCC1N3C/C2=C\c1ccc(-c2ccccc2)s1 (stereo unspecified)
Ratio [1]: 0.19 | Ki [4]: 0.071 µM | Ki [5]: 0.179 µM | Ratio [2]: 0.4 | Ki [6]: 0.0135 µM | Ratio [3]: 0.08

CCCCc1ccc(/C=C2\CN3C4CCC3C(C(=O)OC)C2C4)s1 (stereo unspecified)
Ratio [1]: 0.55 | Ki [4]: 0.665 µM | Ki [5]: 4.7 µM | Ratio [2]: 0.14 | Ki [6]: 0.364 µM | Ratio [3]: 0.08

COC(=O)C1C2CC3CCC1N3C/C2=C\c1cnccn1 (stereo unspecified)
Ratio [1]: 0.27 | Ki [4]: 7.14 µM | Ki [5]: 6.57 µM | Ratio [2]: 1.09 | Ki [6]: 1.93 µM | Ratio [3]: 0.29

COC(=O)C1C2CC3CCC1N3C/C2=C\c1ccc(Br)s1 (stereo unspecified)
Ratio [1]: 0.57 | Ki [4]: 0.036 µM | Ki [5]: 0.147 µM | Ratio [2]: 0.24 | Ki [6]: 0.02 µM | Ratio [3]: 0.14

COC(=O)C1C2CC3CCC1N3C/C2=C\c1ccc(-c2ccc(Cl)s2)s1 (stereo unspecified)
Ratio [1]: 0.62 | Ki [4]: 0.093 µM | Ki [5]: 0.242 µM | Ratio [2]: 0.38 | Ki [6]: 0.058 µM | Ratio [3]: 0.24

CCCc1ccc(/C=C2\CN3C4CCC3C(C(=O)OC)C2C4)s1 (stereo unspecified)
Ratio [1]: 2.32 | Ki [4]: 0.269 µM | Ki [5]: 1.6 µM | Ratio [2]: 0.17 | Ki [6]: 0.624 µM | Ratio [3]: 0.39

COC(=O)C1C2CC3CCC1N3C/C2=C\c1ccc(-c2cccs2)s1 (stereo unspecified)
Ratio [1]: 2.04 | Ki [4]: 0.048 µM | Ki [5]: 0.298 µM | Ratio [2]: 0.16 | Ki [6]: 0.098 µM | Ratio [3]: 0.33

COC(=O)C1C2CC3CCC1N3C/C2=C\c1cccnc1 (stereo unspecified)
Ki [4]: 4.58 µM | Ki [5]: > 10 µM | Ratio [7]: 2.77 | Ki [6]: 12.7 µM

COC(=O)C1C2CC3CCC1N3C/C2=C\c1ccc(Cl)nc1 (stereo unspecified)
Ki [4]: 0.81 µM | Ki [5]: > 10 µM | Ratio [7]: 8.03 | Ki [6]: 6.51 µM

COC(=O)C1C2CC3CCC1N3C/C2=C\c1cc(C)c(Br)s1 (stereo unspecified)
Ratio [1]: 5.45 | Ki [4]: 0.00675 µM | Ki [5]: 1.28 µM | Ratio [2]: 0.01 | Ki [6]: 0.0368 µM | Ratio [3]: 0.03

COC(=O)C1C2CC3CCC1N3C/C2=C\c1ccc(OC)s1 (stereo unspecified)
Ki [4]: 0.544 µM | Ki [5]: > 10 µM | Ratio [7]: 4.12 | Ki [6]: 2.25 µM
